Our source for the IC50 values is patent US7612089B2, “Tetrahydroisoquinolines as factor Xa inhibitors” (Portola Pharmaceuticals, Inc., priority 2004, dated 2009).

The assay deals with T1, human plasma protein factor Xa (Homo sapiens, UniProt P00742).
T1 construct: The human plasma protein factor Xa was purchased; purchased Haematologic Technologies (Essex Junction, Vt.); host or cells: human plasma
Put plainly: Factor Xa IC50 determination (cleavage of paranitroanilide substrate S-2765). The format is biochemical. The note with it: fXa 1 nM, S2765 100 μM, Tris buffered saline pH 7.4, room temperature. An excerpt:
This example illustrates methods for evaluating the compounds of the invention, along with results obtained for such assays. The in vitro and in vivo Factor Xa isoform activities of the inventive compounds can be determined by various procedures known in the art, such as a test for their ability to inhibit the activity of the Factor Xa isoform. […] The IC50 value is the concentration (in nM) of the compound required to provide 50% inhibition of Factor Xa isoform.
An in vitro assay for detecting and measuring inhibition activity against Factor Xa is as follows:
IC50 and Ki Determinations:
The substrate S-2765 (Z-D-Arg-Gly-Arg-pNA.HCl) was obtained from Diapharma (West Chester, Ohio).
The human plasma protein factor Xa was purchased from Haematologic Technologies (Essex Junction, Vt.).
All assays, which are performed in 96-well microtiter plates, measure proteolytic activity of the enzyme (factor Xa) by following cleavage of paranitroanilide substrate. The assay buffer used for proteolytic assays was Tris buffered saline (20 mM Tris, 150 mM NaCl, 5 mM CaCl2, 0.1% Bovine serum albumin (BSA), 5% Dimethly Sulfoxide (DMSO) pH 7.4). In a 96-well microtiter plate, inhibitor was serially diluted to give a range of concentrations from 0.01 nM to 10 μM (final). Duplicate sets of wells were assayed and control wells without inhibitor were included. Enzyme was added to each well, (fXa concentration=1 nM), the plate was shaken for 5 seconds and then incubated for 5 minutes at room temperature. S2765 was added (100 μM final) and the plate was shaken for 5 seconds (final liquid volume in each well was 200 μl). The degree of substrate hydrolysis was measured at 405 nm on a Thermomax plate reader (Molecular Devices, Sunnyvale, Calif.) for 2 minutes. The initial velocities (mOD/min), for each range of inhibitor concentrations, were fitted to a four parameter equation using Softmax data analysis software. The parameter C, derived from the resulting curve-fit, corresponded to the concentration for half maximal inhibition (IC50).

T1 sequence (P00742 235-488 limits assumed): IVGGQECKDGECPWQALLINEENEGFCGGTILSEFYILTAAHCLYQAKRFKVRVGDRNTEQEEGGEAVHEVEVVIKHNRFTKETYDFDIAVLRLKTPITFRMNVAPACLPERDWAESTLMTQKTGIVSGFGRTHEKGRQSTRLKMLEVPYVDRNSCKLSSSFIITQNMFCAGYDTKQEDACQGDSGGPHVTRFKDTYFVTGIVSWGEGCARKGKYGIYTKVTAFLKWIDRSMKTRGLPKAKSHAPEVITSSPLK
T1 sequence (P00742 41-179 partner limits assumed): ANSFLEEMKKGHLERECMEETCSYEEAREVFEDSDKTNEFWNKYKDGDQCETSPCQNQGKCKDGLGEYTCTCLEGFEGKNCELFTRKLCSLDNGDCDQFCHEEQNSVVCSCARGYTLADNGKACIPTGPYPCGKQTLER

For the compound `CN1CCN=C1c1ccc(NC(=O)[C@H]2Cc3ccccc3CN2C(=O)Nc2ccc(Cl)cc2)cc1` [3(R), (3R)-N-[4-(1-methyl-4,5-dihydro-1H-imidazol-2-yl)phenyl]-2N-(4-chlorophenylaminocarbonyl)-1,2,3,4-tetrahydroisoquinoline-3-carboxamide], the IC50 was at most 100 nM. In the case of `CN1CCN=C1c1ccc(NC(=O)[C@@H]2Cc3ccccc3CN2C(=O)Nc2ccc(Cl)cc2)cc1` [3(S), (3S)-N-[4-(1-methyl-4,5-dihydro-1H-imidazol-2-yl)phenyl]-2N-(4-chlorophenylaminocarbonyl)-1,2,3,4-tetrahydroisoquinoline-3-carboxamide] it was at most 100 nM; in that of `CN1CCN=C1c1ccc(NC(=O)C2Cc3ccccc3CN2C(=O)Nc2ccc(Cl)cc2)cc1` (centres unmarked) [Example 1, N-[4-(1-methyl-4,5-dihydro-1H-imidazol-2-yl)phenyl]-2N-(4-chlorophenylaminocarbonyl)-1,2,3,4-tetrahydroisoquinoline-3-carboxamide], at most 100 nM.

The compound `O=C(Nc1ccc(-c2cccc[n+]2[O-])cc1)C1Cc2ccccc2CN1C(=O)Nc1ccc(Cl)cc1` (centres unmarked) [Example 2, N-[4-(1N-oxo-pyridin-2-yl)phenyl]-2N-(4-chlorophenylaminocarbonyl)-1,2,3,4-tetrahydroisoquinoline-3-carboxamide] gave an IC50 of at most 100 nM. `N=C(c1ccc(NC(=O)C2Cc3ccccc3CN2C(=O)Nc2ccc(Cl)cc2)cc1)N1CCCC1` (centres unmarked) [Example 4, N-[4-(pyrrolidinylimino)phenyl]-2N-(4-chlorophenylaminocarbonyl)-1,2,3,4-tetrahydroisoquinoline-3-carboxamide] yielded an IC50 of at most 100 nM. Take `CN(C)C(=N)c1ccc(NC(=O)C2Cc3ccccc3CN2C(=O)Nc2ccc(Cl)cc2)cc1` (centres unmarked) [Example 5, N-[4-(dimethylaminoimino)phenyl]-2N-(4-chlorophenylaminocarbonyl)-1,2,3,4-tetrahydroisoquinoline-3-carboxamide]: the half-maximal inhibitory concentration (IC50) is at most 100 nM. In the case of `CN(C)C(=N)c1cccc(CNC(=O)C2Cc3ccccc3CN2C(=O)Nc2ccc(Cl)cc2)c1` (centres unmarked) [Example 6, N-[3-(dimethylaminoimino)benzyl]-2N-(4-chlorophenylaminocarbonyl)-1,2,3,4-tetrahydroisoquinoline-3-carboxamide] it was at least 500 nM; in that of `CN1CCN=C1c1cccc(CNC(=O)C2Cc3ccccc3CN2C(=O)Nc2ccc(Cl)cc2)c1` (centres unmarked) [Example 7, N-[3-(1-methyl-4,5-dihydro-1H-imidazol-2-yl)benzyl]-2N-(4-chlorophenylaminocarbonyl)-1,2,3,4-tetrahydroisoquinoline-3-carboxamide], at least 500 nM; in that of `O=C(Nc1ccc(C(=O)N2CCCC2)cc1)C1Cc2ccccc2CN1C(=O)Nc1ccc(Cl)cc1` (centres unmarked) [Example 8, N-[4-(pyrrolidinylcarbonyl)phenyl]-2N-(4-chlorophenylaminocarbonyl)-1,2,3,4-tetrahydroisoquinoline-3-carboxamide], at most 100 nM. With `O=C(NCC1CCN(c2ccncc2)CC1)C1Cc2ccccc2CN1C(=O)Nc1ccc(Cl)cc1` (centres unmarked) [Example 9, N-[1-(pyridin-4-yl)piperidin-4-yl]methyl-2N-(4-chlorophenylaminocarbonyl)-1,2,3,4-tetrahydroisoquinoline-3-carboxamide] the figure was 100 to 500 nM; with `CN1CCCN(c2ccc(NC(=O)C3Cc4ccccc4CN3C(=O)Nc3ccc(Cl)cc3)cc2)CC1` (centres unmarked) [Example 10, N-[4-(4-methyl-homopiperazinyl)]phenyl-2N-(4-chlorophenylaminocarbonyl)-1,2,3,4-tetrahydroisoquinoline-3-carboxamide], at most 100 nM. With `CN1CCC(N2CCN(C(=O)C3Cc4ccccc4CN3C(=O)Nc3ccc(Cl)cc3)CC2)CC1` (centres unmarked) [Example 11, 4-(1-methylpiperidin-4-yl)piperazinyl 2N-(4-chlorophenylaminocarbonyl)-1,2,3,4-tetrahydroisoquinoline-3-carboxamide] the figure was at most 100 nM; with `CC(C)N1CCC(NC(=O)C2Cc3ccccc3CN2C(=O)Nc2ccc(Cl)cc2)CC1` (centres unmarked) [Example 12, N-(1-isopropylpiperidin-4-yl)2N-(4-chlorophenylaminocarbonyl)-1,2,3,4-tetrahydroisoquinoline-3-carboxamide], at least 500 nM.

As for `CN(C)Cc1nccn1-c1ccc(NC(=O)C2Cc3ccccc3CN2C(=O)Nc2ccc(Cl)cc2)c(F)c1` (centres unmarked) [Example 13, N-[4-(2-dimethylaminomethyl-imidazol-1-yl)-2-fluorophenyl]-2N-(4-chlorophenylaminocarbonyl)-1,2,3,4-tetrahydroisoquinoline-3-carboxamide], the IC50 was at most 100 nM. With `O=C(Nc1ccc(N2CCOCC2=O)cc1)C1Cc2ccccc2CN1C(=O)Nc1ccc(Cl)cc1` (centres unmarked) [Example 14, N-[4-(3-oxo-morpholin-4-yl)phenyl]-2N-(4-chlorophenylaminocarbonyl)-1,2,3,4-tetrahydroisoquinoline-3-carboxamide] the figure was at most 100 nM; with `O=C(Nc1ccc(C(=O)N2CCSC2)cc1)C1Cc2ccccc2CN1C(=O)Nc1ccc(Cl)cc1` (centres unmarked) [Example 15, N-[4-(3-thiazolidinylcarbonyl)phenyl]-2N-(4-chlorophenylaminocarbonyl)-1,2,3,4-tetrahydroisoquinoline-3-carboxamide], at most 100 nM; with `O=C(Nc1ccc(C(=O)N2CCOC2)cc1)C1Cc2ccccc2CN1C(=O)Nc1ccc(Cl)cc1` (centres unmarked) [Example 16, N-[4-(3-oxazolidinylcarbonyl)phenyl]-2N-(4-chlorophenylaminocarbonyl)-1,2,3,4-tetrahydroisoquinoline-3-carboxamide], at most 100 nM. In the case of `CN(c1ccncc1)c1ccc(NC(=O)C2Cc3ccccc3CN2C(=O)Nc2ccc(Cl)cc2)cc1` (centres unmarked) [Example 17, N-[4-(N-methyl-N-pyridin-4-yl-amino)phenyl]-2N-(4-chlorophenylaminocarbonyl)-1,2,3,4-tetrahydroisoquinoline-3-carboxamide] it was at most 100 nM.

Turning to `Cc1cccc2c1CC(C(=O)Nc1ccc(C3=NCCN3C)cc1)N(C(=O)Nc1ccc(Cl)cc1)C2` (centres unmarked) [Example 18, N-[4-(1-methyl-4,5-dihydro-1H-imidazol-2-yl)phenyl]-2N-(4-chlorophenylaminocarbonyl)-5-methyl-1,2,3,4-tetrahydroisoquinoline-3-carboxamide], the IC50 was at most 100 nM. With `Cc1cccc2c1CC(C(=O)Nc1ccc(C(=N)N3CCCC3)cc1)N(C(=O)Nc1ccc(Cl)cc1)C2` (centres unmarked) [Example 19, N-[4-(pyrrolidinylimino)phenyl]-2N-(4-chlorophenylaminocarbonyl)-5-methyl-1,2,3,4-tetrahydroisoquinoline-3-carboxamide] the figure was at most 100 nM; with `Cc1cccc2c1CC(C(=O)Nc1ccc(C(=N)N(C)C)cc1)N(C(=O)Nc1ccc(Cl)cc1)C2` (centres unmarked) [Example 20, N-[4-(dimethylaminoimino)phenyl]-2N-(4-chlorophenylaminocarbonyl)-5-methyl-1,2,3,4-tetrahydroisoquinoline-3-carboxamide], at most 100 nM; with `COc1cc2c(cc1OC)CN(C(=O)Nc1ccc(Cl)cc1)[C@H](C(=O)Nc1ccc(C3=NCCN3C)cc1)C2` [Example 21, (3S)-N-[4-(1-methyl-4,5-dihydro-1H-imidazol-2-yl)phenyl]-2N-(4-chlorophenylaminocarbonyl)-6,7-dimethoxy-1,2,3,4-tetrahydroisoquinoline-3-carboxamide], at least 500 nM. With `COc1cc2c(cc1OC)CN(C(=O)Nc1ccc(Cl)cc1)[C@H](C(=O)Nc1ccc(C(=N)N3CCCC3)cc1)C2` [Example 22, (3S)-N-[4-(pyrrolidinylimino)phenyl]-2N-(4-chlorophenylaminocarbonyl)-6,7-dimethoxy-1,2,3,4-tetrahydroisoquinoline-3-carboxamide] the figure was 100 to 500 nM. In the case of `COc1cc2c(cc1OC)CN(C(=O)Nc1ccc(Cl)cc1)[C@H](C(=O)Nc1ccc(C(=N)N(C)C)cc1)C2` [Example 23, (3S)-N-[4-(dimethylaminoimino)phenyl]-2N-(4-chlorophenylaminocarbonyl)-6,7-diemthoxy-1,2,3,4-tetrahydroisoquinoline-3-carboxamide] it was at least 500 nM; in that of `CN1CCN=C1c1ccc(NC(=O)C2Cc3cc(O)ccc3CN2C(=O)Nc2ccc(Cl)cc2)cc1` (centres unmarked) [Example 24, N-[4-(1-methyl-4,5-dihydro-1H-imidazol-2-yl)phenyl]-2N-(4-chlorophenylaminocarbonyl)-6-hydroxy-1,2,3,4-tetrahydroisoquinoline-3-carboxamide], at most 100 nM.

Consider `CN1CCN=C1c1ccc(NC(=O)C2Cc3sccc3CN2C(=O)Nc2ccc(Cl)cc2)cc1` (centres unmarked) [Example 25, N-[4-(1-methyl-4,5-dihydro-1H-imidazol-2-yl)phenyl]-5N-(4-chlorophenylaminocarbonyl)-4,5,6,7-tetrahydro-thieno[3,2-c]pyridine-6-carboxamide], for which the IC50 is at most 100 nM.

A word on the IC50: it is the concentration that gives 50% inhibition. Low values mean higher potency, high ones lower potency.
